The results in this text go back to paper PMC5506657, “Improvement in phosphate acquisition and utilization by a secretory purple acid phosphatase (OsPAP21b) in rice” (Plant Biotechnology Journal, 2017).

Assay [1] concerns OsPAP21b. As to the kind of experiment: released Pi by vanadomolybdate; Lineweaver-Burk. As to conditions: 5 mM MgCl2, 50 mM sodium acetate pH 5.0, 37 °C; 0.1-100 mM substrate. Format: biochemical, Oryza sativa.
For assay [2], the system named is OsPAP21b. As to conditions: 10 mM pNPP; 0 to 25 mM NaH2PO4; 5 mM MgCl2, 50 mM sodium acetate pH 5.0, 37 °C; reaction product as inhibitor.

For `Nc1ncnc2c1ncn2[C@@H]1O[C@H](COP(=O)(O)OP(=O)(O)O)[C@@H](O)[C@H]1O` [ADP], the Km in the assay on OsPAP21b [1] is 77 ± 4 µM.
With `O=P(O)(O)O` [Pi], in the assay on OsPAP21b [2], inhibition was half-maximal at 5.09 ± 1.34 mM (IC50).
For `O=[N+]([O-])c1ccc(OP(=O)(O)O)cc1` [pNPP], the Km with OsPAP21b [1] stood at 90 ± 10 µM.

In general, Km refers to the concentration of substrate that gives half-maximal velocity. By IC50 is commonly meant the concentration at which inhibition is half-maximal. High values mean weaker potency in that assay, low ones greater potency in that assay.
